Legend:
[1] = tested on: adult patients with Type 1 Diabetes Mellitus who have inadequate glycemic control with insulin therapy; assay: inTandem 1 and inTandem 2 pooled clinical studies, safety events / main risks; assay type: in vivo, human; conditions: for Discontinuation of drug due to diarrhea / Patients with Any TEAE, (%) / Patients with DKA (positively adjudicated), (%) / Patients with Diarrhea, (%) / Patients with Genital mycotic infection, (%) / Patients with Severe hypoglycemia (positively adjudicated), (%): through 52 Weeks
[2] = tested on: patients with type 1 diabetes; conditions: phase II trials; cited from earlier work
[3] = 400 mg, Baseline BMI <27 kg/m^2, Week 52
[4] = 400 mg, Baseline BMI ≥27 kg/m^2, Week 52

Compound: CCOc1ccc(Cc2cc([C@@H]3O[C@H](SC)[C@@H](O)[C@H](O)[C@H]3O)ccc2Cl)cc1 [sotagliflozin, (2S,3R,4R,5S,6R)-2-(4-chloro-3-(4-ethoxybenzyl)phenyl)-6-(methylthio)tetrahydro-2H-pyran-3,4,5-triol]
- Diarrhea, EAIR per 1,000 Subject-years (95% CL) [1, 3]: 102.78 (56.56, 148.99) per 1,000 Subject-years
- Diarrhea, Events [n (%) n]: events n [1, 3]: 28
- Diarrhea, Events [n (%) n]: patients (%) [1, 3]: 9.0%
- Diarrhea, Events [n (%) n]: patients n [1, 3]: 19
- Diarrhea, Events per Subject per Year [1, 3]: 0.151 Events per Subject per Year
- Diarrhea, Relative Risk of EAIR (95% CL) Versus Placebo [1, 3]: 2.98 (1.28, 7.60)
- Documented hypoglycemia <55 mg/dL, Events per Subject per Year [1, 3]: 15.74 Events per Subject per Year
- Genital Mycotic Infections (female), EAIR per 1,000 Subject-years (95% CL) [1, 3]: 196.79 (108.30, 285.28) per 1,000 Subject-years
- Genital Mycotic Infections (female), Events [n (%) n]: events n [1, 3]: 31
- Genital Mycotic Infections (female), Events [n (%) n]: patients (%) [1, 3]: 16.8%
- Genital Mycotic Infections (female), Events per Subject per Year [1, 3]: 0.321 Events per Subject per Year
- Genital Mycotic Infections (female), Relative Risk of EAIR (95% CL) Versus Placebo [1, 3]: 6.46 (2.09, 27.41)
- Genital Mycotic Infections (male), EAIR per 1,000 Subject-years (95% CL) [1, 3]: 101.91 (35.33, 168.49) per 1,000 Subject-years
- Genital Mycotic Infections (male), Events [n (%) n]: events n [1, 3]: 10
- Genital Mycotic Infections (male), Events [n (%) n]: patients (%) [1, 3]: 9.1%
- Genital Mycotic Infections (male), Events per Subject per Year [1, 3]: 0.113 Events per Subject per Year
- Genital Mycotic Infections (male), Relative Risk of EAIR (95% CL) Versus Placebo [1, 3]: 5.31 (1.26, 36.06)
- Positively Adjudicated Diabetic Ketoacidosis, EAIR per 1,000 Subject-years (95% CL) [1, 3]: 48.68 (16.88, 80.49) per 1,000 Subject-years
- Positively Adjudicated Diabetic Ketoacidosis, Events [n (%) n]: events n [1, 3]: 9
- Positively Adjudicated Diabetic Ketoacidosis, Events [n (%) n]: patients (%) [1, 3]: 4.2%
- Positively Adjudicated Diabetic Ketoacidosis, Events per Subject per Year [1, 3]: 0.049 Events per Subject per Year
- Positively Adjudicated Severe Hypoglycemia, EAIR per 1,000 Subject-years (95% CL) [1, 3]: 59.50 (24.34, 94.67) per 1,000 Subject-years
- Positively Adjudicated Severe Hypoglycemia, Events [n (%) n]: events n [1, 3]: 16
- Positively Adjudicated Severe Hypoglycemia, Events [n (%) n]: patients (%) [1, 3]: 5.2%
- Positively Adjudicated Severe Hypoglycemia, Events per Subject per Year [1, 3]: 0.087 Events per Subject per Year
- Positively Adjudicated Severe Hypoglycemia, Relative Risk of EAIR (95% CL) Versus Placebo [1, 3]: 0.71 (0.32, 1.51)
- Diarrhea, EAIR per 1,000 Subject-years (95% CL) [1, 4]: 92.38 (57.53, 127.23) per 1,000 Subject-years
- Diarrhea, Events [n (%) n]: events n [1, 4]: 37
- Diarrhea, Events [n (%) n]: patients (%) [1, 4]: 8.6%
- Diarrhea, Events [n (%) n]: patients n [1, 4]: 27
- Diarrhea, Events per Subject per Year [1, 4]: 0.127 Events per Subject per Year
- Diarrhea, Relative Risk of EAIR (95% CL) Versus Placebo [1, 4]: 1.25 (0.70, 2.27)
- Documented hypoglycemia <55 mg/dL, Events per Subject per Year [1, 4]: 14.45 Events per Subject per Year
- Genital Mycotic Infections (female), EAIR per 1,000 Subject-years (95% CL) [1, 4]: 192.26 (121.05, 263.48) per 1,000 Subject-years
- Genital Mycotic Infections (female), Events [n (%) n]: events n [1, 4]: 48
- Genital Mycotic Infections (female), Events [n (%) n]: patients (%) [1, 4]: 17.6%
- Genital Mycotic Infections (female), Events per Subject per Year [1, 4]: 0.330 Events per Subject per Year
- Genital Mycotic Infections (female), Relative Risk of EAIR (95% CL) Versus Placebo [1, 4]: 2.70 (1.30, 6.04)
- Genital Mycotic Infections (male), EAIR per 1,000 Subject-years (95% CL) [1, 4]: 47.74 (12.37, 83.10) per 1,000 Subject-years
- Genital Mycotic Infections (male), Events [n (%) n]: events n [1, 4]: 10
- Genital Mycotic Infections (male), Events [n (%) n]: patients (%) [1, 4]: 4.5%
- Genital Mycotic Infections (male), Events per Subject per Year [1, 4]: 0.068 Events per Subject per Year
- Genital Mycotic Infections (male), Relative Risk of EAIR (95% CL) Versus Placebo [1, 4]: 6.93 (1.07, 157.36)
- Positively Adjudicated Diabetic Ketoacidosis, EAIR per 1,000 Subject-years (95% CL) [1, 4]: 37.64 (15.39, 59.88) per 1,000 Subject-years
- Positively Adjudicated Diabetic Ketoacidosis, Events [n (%) n]: events n [1, 4]: 11
- Positively Adjudicated Diabetic Ketoacidosis, Events [n (%) n]: patients (%) [1, 4]: 3.5%
- Positively Adjudicated Diabetic Ketoacidosis, Events per Subject per Year [1, 4]: 0.038 Events per Subject per Year
- Positively Adjudicated Diabetic Ketoacidosis, Relative Risk of EAIR (95% CL) Versus Placebo [1, 4]: 10.22 (1.74, 221.94)
- Positively Adjudicated Severe Hypoglycemia, EAIR per 1,000 Subject-years (95% CL) [1, 4]: 41.06 (17.83, 64.29) per 1,000 Subject-years
- Positively Adjudicated Severe Hypoglycemia, Events [n (%) n]: events n [1, 4]: 17
- Positively Adjudicated Severe Hypoglycemia, Events [n (%) n]: patients (%) [1, 4]: 3.8%
- Positively Adjudicated Severe Hypoglycemia, Events per Subject per Year [1, 4]: 0.058 Events per Subject per Year
- Positively Adjudicated Severe Hypoglycemia, Relative Risk of EAIR (95% CL) Versus Placebo [1, 4]: 0.51 (0.24, 1.02)
- Discontinuation of drug due to diarrhea ([1]; SOTA 200 mg): 0.4%
- Patients with Any TEAE, (%) ([1]; SOTA 200 mg): (75.0) %
- Patients with DKA (positively adjudicated), (%) ([1]; SOTA 200 mg): (2.9) %
- Patients with Diarrhea, (%) ([1]; SOTA 200 mg): (6.5) %
- Patients with Genital mycotic infection, (%) ([1]; SOTA 200 mg): (9.2) %
- Patients with Severe hypoglycemia (positively adjudicated), (%) ([1]; SOTA 200 mg): (5.7) %
- Discontinuation of drug due to diarrhea ([1]; SOTA 400 mg): 0.8%
- Patients with Any TEAE, (%) ([1]; SOTA 400 mg): (74.3) %
- Patients with DKA (positively adjudicated), (%) ([1]; SOTA 400 mg): (3.8) %
- Patients with Diarrhea, (%) ([1]; SOTA 400 mg): (8.8) %
- Patients with Genital mycotic infection, (%) ([1]; SOTA 400 mg): (12.0) %
- Patients with Severe hypoglycemia (positively adjudicated), (%) ([1]; SOTA 400 mg): (4.4) %
- risk of diarrhea compared to placebo ([1]; baseline BMI ≥27 kg/m^2, any doses): No increased risk
- risk of DKA versus placebo ([1]; both BMI subgroups): increased
- risk of severe hypoglycemia ([1]; both doses, baseline BMI ≥27 kg/m^2 (only 400 mg in BMI <27 kg/m^2)): numerically lower risk
- event rates of documented hypoglycemia ≤55 mg/dL ([1]; both doses, both BMI subgroups): numerically lower
- glycemic control (reduction in A1C) [2]: significantly improve glycemic control
